# Laboratory results taken from patent US10952992B2, “Methods of treating intraocular pressure with activators of Tie-2” (Aerpio Pharmaceuticals, Inc., priority 2015, dated 2021).
# Values joined by “and” are separate entries in the source; they are usually repeats but may differ in a detail not shown here. Equal values may be shown once.
# System: intraocular pressure in normotensive New Zealand White rabbits
# Experiment: Example 3 intraocular pressure after repeated topical and subcutaneous administration (pneumotonometer)
# Format: in vivo
# Design: IOP, individual animal / IOP, group Average: unit not given here
# Experimental: To measure the tolerability and effect of Compound 1 (sodium salt) on intraocular pressure following repeated topical and subcutaneous administration, normotensive New Zealand White rabbits were treated with Compound 1 (sodium salt). Animals were acclimated 1 to 2 times per day to the intraocular pressure (IOP) measurement procedures prior to initiation of the study to determine baseline IOP levels. IOP acclimation was performed in the two weeks prior to study start for a total of 5 days. Animals with unacceptable IOP values were excluded from the study. Prior to taking all IOP measurements, 1 to 2 drops of a 0.5% proparacaine solution were applied to the eye as a topical anesthetic. OP measurements were performed with a pneumotonometer. Test and control formulations were administered to the animals once or twice daily topically into both eyes or subcutaneously starting on Day 1 according to TABLE 20 and TABLE 21 below. PM dosing, where applicable, was performed ˜8 hours after AM dosing. IOP measurements were performed twice (AM and PM) at baseline (prior to the start of dosing), twice (AM and PM) on Days 1 and 7, and once daily (AM) on Days 2-6 and Day 8. Prior to taking all IOP measurements, 1 to 2 drops of a 0.5% proparacaine solution were applied to the eye as a topical anesthetic. IOP measurements were performed with a pneumotonometer. AM IOP measurements were performed 2 hours after AM dosing; the only exceptions were Day 8 AM measurements, which were performed 24 hours after the final dose. PM IOP measurements were performed ˜5 hours (baseline and Day 1) or ˜4 hours (Day 7) after AM IOP measurements, prior to PM dosing, with at least 15 minutes elapsing between anesthetic application for PM IOP measurements and PM dosing. The final round of slit-lamp examinations was performed on Day 8.
# [1] = Group 2: 0.45 mg/eye topical sodium salt BID, Day 1, AM, OD
# [2] = Group 2: 0.45 mg/eye topical sodium salt BID, Day 1, AM, OS
# [3] = Group 2: 0.45 mg/eye topical sodium salt BID, Day 1, PM, OD
# [4] = Group 2: 0.45 mg/eye topical sodium salt BID, Day 1, PM, OS
# [5] = Group 2: 0.45 mg/eye topical sodium salt BID, Day 2, AM, OD
# [6] = Group 2: 0.45 mg/eye topical sodium salt BID, Day 2, AM, OS
# [7] = Group 2: 0.45 mg/eye topical sodium salt BID, Day 3, AM, OD
# [8] = Group 2: 0.45 mg/eye topical sodium salt BID, Day 3, AM, OS
# [9] = Group 2: 0.45 mg/eye topical sodium salt BID, Day 4, AM, OD
# [10] = Group 2: 0.45 mg/eye topical sodium salt BID, Day 4, AM, OS
# [11] = Group 2: 0.45 mg/eye topical sodium salt BID, Day 5, AM, OD
# [12] = Group 2: 0.45 mg/eye topical sodium salt BID, Day 5, AM, OS
# [13] = Group 3: 1.2 mg/eye topical sodium salt BID, Day 1, AM, OD
# [14] = Group 3: 1.2 mg/eye topical sodium salt BID, Day 1, AM, OS
# [15] = Group 3: 1.2 mg/eye topical sodium salt BID, Day 1, PM, OD
# [16] = Group 3: 1.2 mg/eye topical sodium salt BID, Day 1, PM, OS
# [17] = Group 3: 1.2 mg/eye topical sodium salt BID, Day 2, AM, OD
# [18] = Group 3: 1.2 mg/eye topical sodium salt BID, Day 2, AM, OS
# [19] = Group 3: 1.2 mg/eye topical sodium salt BID, Day 3, AM, OD
# [20] = Group 3: 1.2 mg/eye topical sodium salt BID, Day 3, AM, OS
# [21] = Group 3: 1.2 mg/eye topical sodium salt BID, Day 4, AM, OD
# [22] = Group 3: 1.2 mg/eye topical sodium salt BID, Day 4, AM, OS
# [23] = Group 3: 1.2 mg/eye topical sodium salt BID, Day 5, AM, OD
# [24] = Group 3: 1.2 mg/eye topical sodium salt BID, Day 5, AM, OS
smiles,measurement,setting,value
COC(=O)N[C@@H](Cc1ccccc1)C(=O)N[C@@H](Cc1ccc(NS(=O)(=O)O)cc1)c1csc(-c2cccs2)n1 [Compound 1],"IOP, group Average",[1],22.1
same,"IOP, individual animal",[1],20.3 and 23.7 and 24.0 and 20.7 and 21.7
same,"IOP, group Average",[2],23.3
same,"IOP, individual animal",[2],20.7 and 23.3 (2×) and 25.2 and 23.8
same,"IOP, group Average",[3],25.5
same,"IOP, individual animal",[3],24.8 (2×) and 29.5 and 22.0 and 26.2
same,"IOP, group Average",[4],26.1
same,"IOP, individual animal",[4],24.8 and 24.2 and 28.8 and 25.3 and 27.2
same,"IOP, group Average",[5],21.9
same,"IOP, individual animal",[5],22.0 and 22.7 and 25.0 and 18.3 and 21.7
same,"IOP, group Average",[6],22.2
same,"IOP, individual animal",[6],21.8 and 22.3 and 24.3 and 20.8 and 21.5
same,"IOP, group Average",[7],24.0
same,"IOP, individual animal",[7],25.0 and 24.2 and 26.0 and 20.8 and 23.8
same,"IOP, group Average",[8],24.5
same,"IOP, individual animal",[8],25.3 and 23.5 and 26.0 and 23.0 and 24.5
same,"IOP, group Average",[9],23.9
same,"IOP, individual animal",[9],23.8 and 22.0 and 26.7 and 21.3 and 25.7
same,"IOP, group Average",[10],24.3
same,"IOP, individual animal",[10],23.0 and 22.7 and 26.3 and 23.5 and 26.2
same,"IOP, group Average",[11],25.2
same,"IOP, individual animal",[11],28.8 and 22.8 and 28.0 and 20.7 and 25.7
same,"IOP, group Average",[12],26.5
same,"IOP, individual animal",[12],28.8 and 25.0 and 28.0 and 24.2 and 26.3
same,"IOP, group Average","Group 2: 0.45 mg/eye topical sodium salt BID, Day 6, AM, OD",25.5
same,"IOP, group Average","Group 2: 0.45 mg/eye topical sodium salt BID, Day 6, AM, OS",25.4
same,"IOP, group Average","Group 2: 0.45 mg/eye topical sodium salt BID, Day 7, AM, OD",23.7
same,"IOP, group Average","Group 2: 0.45 mg/eye topical sodium salt BID, Day 7, AM, OS",24.5
same,"IOP, group Average","Group 2: 0.45 mg/eye topical sodium salt BID, Day 7, PM, OD",25.1
same,"IOP, group Average","Group 2: 0.45 mg/eye topical sodium salt BID, Day 7, PM, OS",25.6
same,"IOP, group Average","Group 2: 0.45 mg/eye topical sodium salt BID, Day 8, AM (24 hours after final dose), OD",24.9
same,"IOP, group Average","Group 2: 0.45 mg/eye topical sodium salt BID, Day 8, AM (24 hours after final dose), OS",25.1
same,"IOP, group Average",[13],22.0
same,"IOP, individual animal",[13],23.2 and 20.7 and 24.0
same,"IOP, group Average",[14],23.2
same,"IOP, individual animal",[14],23.8 and 23.0 and 24.7
same,"IOP, group Average",[15],24.1
same,"IOP, individual animal",[15],23.8 and 22.7 and 24.7
same,"IOP, group Average",[16],24.9
same,"IOP, individual animal",[16],24.5 and 23.7 and 26.8
same,"IOP, group Average",[17],20.8
same,"IOP, individual animal",[17],17.5 and 18.5 and 24.3
same,"IOP, group Average",[18],21.2
same,"IOP, individual animal",[18],19.3 and 20.2 and 24.0
same,"IOP, group Average",[19],20.7
same,"IOP, individual animal",[19],19.2 and 20.0 and 23.0
same,"IOP, group Average",[20],21.2
same,"IOP, individual animal",[20],20.0 and 20.8 and 22.7
same,"IOP, group Average",[21],22.8
same,"IOP, individual animal",[21],23.2 and 19.8 and 23.8 and 24.8
same,"IOP, group Average",[22],23.2
same,"IOP, individual animal",[22],23.3 and 21.7 and 24.2 and 24.5
same,"IOP, group Average",[23],21.5
same,"IOP, individual animal",[23],21.5 and 18.8 and 22.3 and 21.2
same,"IOP, group Average",[24],22.0
same,"IOP, individual animal",[24],22.3 and 19.8 and 23.5 and 20.7
same,"IOP, group Average","Group 3: 1.2 mg/eye topical sodium salt BID, Day 6, AM, OD",24.2
same,"IOP, group Average","Group 3: 1.2 mg/eye topical sodium salt BID, Day 6, AM, OS",24.7
same,"IOP, group Average","Group 3: 1.2 mg/eye topical sodium salt BID, Day 7, AM, OD",21.3
same,"IOP, group Average","Group 3: 1.2 mg/eye topical sodium salt BID, Day 7, AM, OS",22.0
same,"IOP, group Average","Group 3: 1.2 mg/eye topical sodium salt BID, Day 7, PM, OD",23.7
same,"IOP, group Average","Group 3: 1.2 mg/eye topical sodium salt BID, Day 7, PM, OS",24.2
same,"IOP, group Average","Group 3: 1.2 mg/eye topical sodium salt BID, Day 8, AM (24 hours after final dose), OD",23.4
same,"IOP, group Average","Group 3: 1.2 mg/eye topical sodium salt BID, Day 8, AM (24 hours after final dose), OS",23.9
same,"IOP, group Average","Group 4: 1.2 mg/eye topical sodium salt QD, Day 1, AM, OD",21.2
same,"IOP, group Average","Group 4: 1.2 mg/eye topical sodium salt QD, Day 1, AM, OS",21.4
same,"IOP, group Average","Group 4: 1.2 mg/eye topical sodium salt QD, Day 1, PM, OD",23.1
same,"IOP, group Average","Group 4: 1.2 mg/eye topical sodium salt QD, Day 1, PM, OS",23.2
same,"IOP, group Average","Group 4: 1.2 mg/eye topical sodium salt QD, Day 2, AM, OD",20.0
same,"IOP, group Average","Group 4: 1.2 mg/eye topical sodium salt QD, Day 2, AM, OS",20.1
same,"IOP, group Average","Group 4: 1.2 mg/eye topical sodium salt QD, Day 3, AM, OD",20.8
same,"IOP, group Average","Group 4: 1.2 mg/eye topical sodium salt QD, Day 3, AM, OS",20.9
same,"IOP, group Average","Group 4: 1.2 mg/eye topical sodium salt QD, Day 4, AM, OD",21.6
same,"IOP, group Average","Group 4: 1.2 mg/eye topical sodium salt QD, Day 4, AM, OS",22.6
same,"IOP, group Average","Group 4: 1.2 mg/eye topical sodium salt QD, Day 5, AM, OD",21.0
same,"IOP, group Average","Group 4: 1.2 mg/eye topical sodium salt QD, Day 5, AM, OS",21.2
same,"IOP, group Average","Group 4: 1.2 mg/eye topical sodium salt QD, Day 6, AM, OD",22.5
same,"IOP, group Average","Group 4: 1.2 mg/eye topical sodium salt QD, Day 6, AM, OS",23.2
same,"IOP, group Average","Group 4: 1.2 mg/eye topical sodium salt QD, Day 7, AM, OD",22.6
same,"IOP, group Average","Group 4: 1.2 mg/eye topical sodium salt QD, Day 7, AM, OS",23.0
same,"IOP, group Average","Group 4: 1.2 mg/eye topical sodium salt QD, Day 7, PM, OD",24.6
same,"IOP, group Average","Group 4: 1.2 mg/eye topical sodium salt QD, Day 7, PM, OS",24.7
same,"IOP, group Average","Group 4: 1.2 mg/eye topical sodium salt QD, Day 8, AM (24 hours after final dose), OD",22.7
same,"IOP, group Average","Group 4: 1.2 mg/eye topical sodium salt QD, Day 8, AM (24 hours after final dose), OS",22.8
same,"IOP, group Average","Group 5: 10 mg/kg subcutaneous sodium salt BID, Day 1, AM, OD",22.3
same,"IOP, group Average","Group 5: 10 mg/kg subcutaneous sodium salt BID, Day 1, AM, OS",23.6
same,"IOP, group Average","Group 5: 10 mg/kg subcutaneous sodium salt BID, Day 1, PM, OD",23.3
same,"IOP, group Average","Group 5: 10 mg/kg subcutaneous sodium salt BID, Day 1, PM, OS",23.6
same,"IOP, group Average","Group 5: 10 mg/kg subcutaneous sodium salt BID, Day 2, AM, OD",21.5
same,"IOP, group Average","Group 5: 10 mg/kg subcutaneous sodium salt BID, Day 2, AM, OS",21.7
same,"IOP, group Average","Group 5: 10 mg/kg subcutaneous sodium salt BID, Day 3, AM, OD",20.7
same,"IOP, group Average","Group 5: 10 mg/kg subcutaneous sodium salt BID, Day 3, AM, OS",21.3
same,"IOP, group Average","Group 5: 10 mg/kg subcutaneous sodium salt BID, Day 4, AM, OD",21.9
same,"IOP, group Average","Group 5: 10 mg/kg subcutaneous sodium salt BID, Day 4, AM, OS",22.2
same,"IOP, group Average","Group 5: 10 mg/kg subcutaneous sodium salt BID, Day 5, AM, OD",22.4
same,"IOP, group Average","Group 5: 10 mg/kg subcutaneous sodium salt BID, Day 5, AM, OS",23.4
same,"IOP, group Average","Group 5: 10 mg/kg subcutaneous sodium salt BID, Day 6, AM, OD",24.5
same,"IOP, group Average","Group 5: 10 mg/kg subcutaneous sodium salt BID, Day 6, AM, OS",25.0
same,"IOP, group Average","Group 5: 10 mg/kg subcutaneous sodium salt BID, Day 7, AM, OD",23.9
same,"IOP, group Average","Group 5: 10 mg/kg subcutaneous sodium salt BID, Day 7, AM, OS",23.9
same,"IOP, group Average","Group 5: 10 mg/kg subcutaneous sodium salt BID, Day 7, PM, OD",24.1
same,"IOP, group Average","Group 5: 10 mg/kg subcutaneous sodium salt BID, Day 7, PM, OS",24.3
same,"IOP, group Average","Group 5: 10 mg/kg subcutaneous sodium salt BID, Day 8, AM (24 hours after final dose), OD",24.5
same,"IOP, group Average","Group 5: 10 mg/kg subcutaneous sodium salt BID, Day 8, AM (24 hours after final dose), OS",24.0
